Data reported in ChEMBL document CHEMBL3217457, “Carbazolepyrrolo[2,1-c][1,4]benzodiazepine conjugates: design, synthesis, and biological evaluation” (Medchemcomm, 2011).

Key:
[1] = system: PC-3; test: Growth inhibition of human PC3 cells; type: functional
[2] = system: KB; test: Growth inhibition of human KB cells; type: functional
[3] = system: HOP-62; test: Growth inhibition of human HOP62 cells; type: functional
[4] = system: MCF7; test: Growth inhibition of human MCF7 cells; type: functional
[5] = system: COLO 205; test: Growth inhibition of human COLO205 cells; type: functional
[6] = system: SiHa; test: Growth inhibition of human SiHa cells; type: functional
[7] = system: A2780; test: Growth inhibition of human A2780 cells; type: functional
[8] = system: Calf thymus DNA; test: Binding affinity to calf thymus DNA assessed as change in melting temperature at compound to DNA ratio of 1:5 after 18 hrs by thermal denaturation analysis; type: nucleic-acid assay; conditions: Bos taurus
[9] = system: A549; test: Growth inhibition of human A549 cells; type: functional
[10] = system: ZR-75-1; test: Growth inhibition of human ZR-75-1 cells; type: functional
[11] = Growth inhibition of human Gurav cells; type: functional
[12] = system: MCF7; test: Cell cycle arrest in human MCF7 cells assessed as accumulation at G0/G1 phase at 4 uM after 24 hrs by propidium iodide staining based flow cytometry (reference value: 60.75%); type: functional
[13] = system: MCF7; test: Cell cycle arrest in human MCF7 cells assessed as accumulation at G1 phase at 4 uM after 24 hrs by propidium iodide staining based flow cytometry (reference value: 57.98%); type: functional
[14] = system: MCF7; test: Cell cycle arrest in human MCF7 cells assessed as accumulation at G0 phase at 4 uM after 24 hrs by propidium iodide staining based flow cytometry (reference value: 2.77%); type: functional
[15] = system: MCF7; test: Cell cycle arrest in human MCF7 cells assessed as accumulation at S phase at 4 uM after 24 hrs by propidium iodide staining based flow cytometry (reference value: 14.30%); type: functional
[16] = system: MCF7; test: Cell cycle arrest in human MCF7 cells assessed as accumulation at G2/M phase at 4 uM after 24 hrs by propidium iodide staining based flow cytometry (reference value: 24.95%); type: functional

SMILES	GI50 [1]	GI50 [2]	GI50 [4]	GI50 [5]	GI50 [7]	ΔTm [8]	GI50 [9]	GI50 [3]	GI50 [6]	GI50 [10]	GI50 [11]	Activity [12]	Activity [13]	Activity [14]	Activity [15]	Activity [16]
COc1ccc(-c2ccc3c(c2)c2cc(-c4ccc(OC)cc4)ccc2n3CCCOc2cc3c(cc2OC)C(=O)N2CCC[C@H]2C=N3)cc1	160 nM	180 nM	130 nM	170 nM	150 nM	4.8 °C	180 nM	110 nM	170 nM	–	–	–	–	–	–	–
COc1cc2c(cc1O)N=C[C@@H]1CCCN1C2=O	200 nM	170 nM	170 nM	110 nM	140 nM	–	160 nM	150 nM	170 nM	2340 nM	170 nM	67.74%	63.79%	3.95%	12.2%	20.07%
COc1ccc(-c2ccc3c(c2)c2cc(-c4ccc(OC)cc4)ccc2n3CCCCCOc2cc3c(cc2OC)C(=O)N2CCC[C@H]2C=N3)cc1	150 nM	170 nM	140 nM	180 nM	140 nM	5.9 °C	160 nM	120 nM	170 nM	–	–	–	–	–	–	–
COc1cccc2c1C(=O)c1c(O)c3c(c(O)c1C2=O)C[C@@](O)(C(=O)CO)C[C@@H]3O[C@H]1C[C@H](N)[C@H](O)[C@H](C)O1 [DOXORUBICIN]	1830 nM	170 nM	170 nM	140 nM	160 nM	–	–	140 nM	170 nM	–	160 nM	–	–	–	–	–

Now those with a lower GI50 [1], led by results:

GI50 [1]	GI50 [2]	GI50 [4]	GI50 [5]	GI50 [7]	ΔTm [8]	GI50 [9]	SMILES	GI50 [3]	GI50 [6]	GI50 [10]	GI50 [11]	Activity [12]	Activity [13]	Activity [14]	Activity [15]	Activity [16]
140 nM	160 nM	150 nM	170 nM	140 nM	7.9 °C	140 nM	COc1cc2c(cc1OCCCCN1CCN(CCCn3c4ccccc4c4ccccc43)CC1)N=C[C@@H]1CCCN1C2=O	110 nM	160 nM	160 nM	150 nM	–	–	–	–	–
120 nM	110 nM	40 nM	80 nM	10 nM	7.2 °C	130 nM	COc1ccc(-c2ccc3c(c2)c2cc(-c4ccc(OC)cc4)ccc2n3CCCN2CCN(CCCOc3cc4c(cc3OC)C(=O)N3CCC[C@H]3C=N4)CC2)cc1	100 nM	120 nM	130 nM	120 nM	–	–	–	–	–
110 nM	140 nM	150 nM	140 nM	110 nM	8.5 °C	120 nM	COc1cc2c(cc1OCCCN1CCN(CCCCn3c4ccccc4c4ccccc43)CC1)N=C[C@@H]1CCCN1C2=O	100 nM	130 nM	150 nM	130 nM	–	–	–	–	–
